Laboratory results from PubChem BioAssay AID2060503 (Molecular Pharmacology Branch, DTP, NCI, 2025).

Test system: 817829-284-R-J1-PDC complex spheroids, viability
Assay: Anticancer human tumor 817829-284-R-J1-PDC patient-derived colon adenocarcinoma cell line growth inhibition [GQUAD]
Conditions: for IC50: curve of first compound; for viability, T/C: stronger effect = lower value
From the text: DNA G-quadruplex Stabilizer Agents in Combinations in Complex Spheroids
A high-throughput screen of multi-cell type tumor spheroids was designed to identify active combinations of DNA G-quadruplex stabilizer agents and targeted small molecules. Complex spheroids include a stromal component modeled by human endothelial cells (HUVEC) and fibroblasts modeled by human mesenchymal stem cells (MSCs). The concentration ranges selected for each drug and investigational agent were based upon clinically achievable concentrations if the clinical Cmax of the agent was known.
Compounds. The drugs and investigational agents: pidnarulex (CX-5461; NSC782164), APTO-253 (NSC789042), BRACO-19 (NSC847499), peposertib (NSC802822), ceralasertib (NSC780249), elimusertib (NSC800525), camonsertib (NSC841442), AZD-1390 (NSC803789), olaparib (NSC753686), talazoparib (NSC767125), ART-558 (NSC835418), sotorasib (NSC818433), MRTX-1133 (NSC836407), SN-38 (NSC673596), topotecan (NSC609699), etoposide (NSC141540), doxorubicin (NSC123127), gemcitabine (NSC613327), 5-fluorouracil (NSC19893), paclitaxel (NSC125973), vemurafenib (NSC761431), panobinostat (NSC761190), R-306465 (JNJ-16241199; NSC773264), adavosertib (NSC754352), TP-3654 (NSC805149), carboplatin (NSC241240), KSQ-4279 (NSC840948), and staurosporine (NSC755774) were obtained from the National Cancer Institute (NCI) Developmental Therapeutics Program Chemical Repository (34). The FDA-approved anticancer drug set is available from the NCI Developmental Therapeutics Program. […] The stock solutions were prepared in dimethyl sulfoxide (DMSO, Sigma-Aldrich, St. Louis, MO, cat. D2650) at 800-fold the tested concentration and stored at -70 degrees C prior to their use. All drugs and investigational agents were tested over a range starting from a high concentration at or near the clinical Cmax and decreasing in half-log increments. If the clinical Cmax for an agent had not been determined, the highest concentration tested was 10 microM.
2.3 Cell Culture. All cells were maintained in an incubator at 37 degrees C and 5% CO2 with 95% humidity. The PDC lines were cultured according to standard operating procedures established by the NCI PDMR. All PDCs were thawed and cultured in Matrigel-coated flasks prepared with a working solution of 1X Ham's F-12 nutrient mix, without supplementation (Invitrogen, cat. 11765054), 100 U/mL penicillin-streptomycin (Invitrogen, cat. 15140122), and 2.5% Matrigel (Corning Inc., cat. 354248) for the first three passages. The 857933-349-R-J2-PDC line was cultured in 6C/Colon 1B media, which includes advanced DMEM/F-12 (Thermo Fisher Scientific, cat. 12634028), 10 mM HEPES (Thermo Fisher Scientific, cat. 15630080), 1X GlutaMAX supplement (Thermo Fisher Scientific, cat. 35050061), 0.1 mg/mL primocin (InvivoGen, cat. ant-pm-2), 10% defined fetal bovine serum, heat inactivated (HyClone Laboratories Inc., cat. SH30070.03HI), 50% L-WRN conditioned media (ATCC, cat. CRL-3276), 1.25 mM N-Acetyl-L-cysteine (Sigma-Aldrich, cat. A9165), 10 mM nicotinamide (Sigma-Aldrich, cat. N0636), 1X B-27 supplement (Thermo Fisher Scientific, cat. 17504044), 1X N-2 supplement (Thermo Fisher Scientific, cat. 17502048), 10 microM Y-27632 dihydrochloride (Tocris Bioscience, cat. 1254), and 50 ng/mL human EGF recombinant protein (Thermo Fisher Scientific, cat. PHG0311). The 485176-168-R4-J1-PDC line was cultured in Panc media, which includes all 6C/Colon 1B media components plus 100 ng/mL human FGF-10 (Thermo Fisher Scientific, cat. 100-26), 500 nM SB-431542 (Selleckchem, cat. S1067), and gastrin (Tocris, cat. 3006).
[…]
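Further: spheroids exposed to agents for 7 days before readout.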
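Wherever viability, T/C is given: percent viability relative to DMSO vehicle control taken as 100%.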

COc1ccc([C@@H](O)c2cc(-c3ncnc4cc(N5CCOCC5)ccc34)c(F)cc2Cl)nn1 + CN(C)c1ccc(Nc2c3ccc(NC(=O)CCN4CCCC4)cc3nc3cc(NC(=O)CCN4CCCC4)ccc23)cc1
IC50 (second compound 0.0316 µM): > 10 µM | IC50 (second compound 0.1 µM): > 10 µM | IC50 (second compound 0.316 µM): > 10 µM | IC50 (second compound 1 µM): 8.58 µM | IC50 (second compound 3.16 µM): 2.95 µM | IC50 (second compound 10 µM): 1.14 µM | viability, T/C (second compound 0.0316 µM, first compound 0.0316 µM): 104% | viability, T/C (second compound 0.0316 µM, first compound 0.1 µM): 98.7% | viability, T/C (second compound 0.0316 µM, first compound 0.316 µM): 103% | viability, T/C (second compound 0.0316 µM, first compound 1 µM): 85.5% | viability, T/C (second compound 0.0316 µM, first compound 3.16 µM): 88% | viability, T/C (second compound 0.0316 µM, first compound 10 µM): 58.1% | viability, T/C (second compound 0.1 µM, first compound 0.0316 µM): 86.8% | viability, T/C (second compound 0.1 µM, first compound 0.1 µM): 100% | viability, T/C (second compound 0.1 µM, first compound 0.316 µM): 94.4% | viability, T/C (second compound 0.1 µM, first compound 1 µM): 94.7% | viability, T/C (second compound 0.1 µM, first compound 3.16 µM): 63.5% | viability, T/C (second compound 0.1 µM, first compound 10 µM): 54.7% | viability, T/C (second compound 0.316 µM, first compound 0.0316 µM): 92.2% | viability, T/C (second compound 0.316 µM, first compound 0.1 µM): 107% | viability, T/C (second compound 0.316 µM, first compound 0.316 µM): 115% | viability, T/C (second compound 0.316 µM, first compound 1 µM): 95.5% | viability, T/C (second compound 0.316 µM, first compound 3.16 µM): 76% | viability, T/C (second compound 0.316 µM, first compound 10 µM): 56.3% | viability, T/C (second compound 1 µM, first compound 0.0316 µM): 88.9% | viability, T/C (second compound 1 µM, first compound 0.1 µM): 106% | viability, T/C (second compound 1 µM, first compound 0.316 µM): 98% | viability, T/C (second compound 1 µM, first compound 1 µM): 86.5% | viability, T/C (second compound 1 µM, first compound 3.16 µM): 68.8% | viability, T/C (second compound 1 µM, first compound 10 µM): 47% | viability, T/C (second compound 3.16 µM, first compound 0.0316 µM): 93.6% | viability, T/C (second compound 3.16 µM, first compound 0.1 µM): 96.3% | viability, T/C (second compound 3.16 µM, first compound 0.316 µM): 96.9% | viability, T/C (second compound 3.16 µM, first compound 1 µM): 73.9% | viability, T/C (second compound 3.16 µM, first compound 3.16 µM): 50.1% | viability, T/C (second compound 3.16 µM, first compound 10 µM): 33.4% | viability, T/C (second compound 10 µM, first compound 0.0316 µM): 107% | viability, T/C (second compound 10 µM, first compound 0.1 µM): 85.9% | viability, T/C (second compound 10 µM, first compound 0.316 µM): 85.7% | viability, T/C (second compound 10 µM, first compound 1 µM): 47.5% | viability, T/C (second compound 10 µM, first compound 3.16 µM): 31.3% | viability, T/C (second compound 10 µM, first compound 10 µM): 13.5%
